Measurements: article PMC7824081, “Inhibition of DOT1L by Half-Selenopsammaplin A Analogs Suppresses Tumor Growth and EMT-Mediated Metastasis in Triple-Negative Breast Cancer” (Pharmaceuticals, 2020)

Columns and labels:
Format in all cases: cell-based, human
[1] = tested on: E-cadherin, N-cadherin, vimentin in MDA-MB-231 cells; assay: Western blotting of EMT biomarkers in MDA-MB-231 cells; conditions: 24 h
Experimental: Total cell lysates were prepared in 2× sample loading buffer [250 mM Tris-HCl (pH 6.8), 10% glycerol, 4% sodium dodecyl sulfate (SDS), 2% β-mercaptoethanol, 0.006% bromophenol blue, 5 mM sodium orthovanadate, and 50 mM sodium fluoride; Bio-Rad, Hercules, CA, USA]. The protein concentrations of samples were quantified using the bicinchoninic acid (BCA) method and a BCA Protein Assay Kit (Thermo Fisher Scientific, Waltham, MA, USA). Equal amounts of protein (5–20 μg) were separated by 6–13% SDS-polyacrylamide gel electrophoresis (PAGE) and transferred to polyvinylidene fluoride membranes (Millipore, Bedford, MA, USA). The membranes were blocked with 5% bovine serum albumin (Sigma-Aldrich) and then probed with anti-DOT1L, anti-H3K79me2, anti-β-Actin, anti-histone H3, anti-H3K4me2, anti-H3K27me2, anti-H3K36me2, anti-H3K79me1, anti-H3K79me3, and anti-Vimentin antibodies purchased from Cell Signaling Technology (Beverly, MA, USA) or with anti-E-cadherin and anti-N-cadherin antibodies purchased from (BD Biosciences, San Jose, CA, USA). The blots were detected using a WEST-Queen detection system (iNtRON Biotechnology, Seongnam, Korea).

MDA-MB-231 TNBC cells = assay: SRB cell proliferation assay, MDA-MB-231
Experimental: Human breast epithelial cell line (MCF10A) and human TNBC cell lines (MDA-MB-468, MDA-MB-231, Hs578T, and HCC38 cells) were provided by the American Type Culture Collection (Manassas, VA, USA). MCF10A cells were cultured in Dulbecco’s Modified Eagle’s Medium/Nutrient Mixture F-12 containing 5% donor horse serum, 100 ng/mL cholera toxin, 10 µg/mL human insulin, 20 ng/mL epidermal growth factor, 0.5 µg/mL hydrocortisone, and penicillin-streptomycin (sodium penicillin G: 100 units/mL; streptomycin: 100 μg/mL). The TNBC cells were cultured in medium [Dulbecco’s Modified Eagle’s Medium for MDA-MB-468, MDA-MB-231, and Hs578T cells; Roswell Park Memorial Institute 1640 medium for HCC38 cells] supplemented with penicillin-streptomycin and 10% fetal bovine serum at 37 °C in a humidified incubator with 5% carbon dioxide. MCF10A cells were cultured in DMEM/F12 containing 5% donor horse serum, 100 ng/mL cholera toxin, 10 µg/mL human insulin, 20 ng/mL epidermal growth factor, 0.5 µg/mL hydrocortisone and penicillin-streptomycin. All reagents used for cell culture, including culture medium, fetal bovine serum, trypsin-EDTA solution (1×), and penicillin-streptomycin solution (100×), were purchased from Gibco (Grand Island, NE, USA). Laemmli sample buffer (2×) and 2-mercaptoethanol were purchased from Bio-Rad Laboratories, Inc. (Hercules, CA, USA). EPZ-5676 was purchased from Cayman Chemical (Ann Arbor, MI, USA). Dimethyl sulfoxide (DMSO), bicinchoninic acid, copper (II) sulfate solution, bovine serum albumin (BSA), trichloroacetic acid, sulforhodamine B (SRB), and paclitaxel were purchased from Sigma–Aldrich (St. Louis, MO, USA).
Cell proliferation was evaluated using the SRB assay. Briefly, cells were seeded in 96-well plates and incubated for 30 min (for 0-day controls) or treated with test compounds for the times indicated. After incubation, the cells were fixed, dried, and stained with 0.4% (w/v) SRB in 1% (v/v) acetic acid solution. Unbound dye was removed by washing, and stained cells were dissolved in 10 mM Tris (pH 10.0). Cell proliferation was then determined by measuring the absorbance at 515 nm.

MDA-MB-231 cells = assay: Transwell cell invasion assay; conditions: 24 h pretreatment, 24 h Transwell
Experimental: Twenty-four-well Transwell membrane inserts (diameter: 6.5 mm, pore size: 8 μm; Corning, Tewksbury, MA, USA) were each coated with 10 μL of type I collagen (0.5 mg/mL, BD Biosciences, San Diego, CA, USA) and 20 μL of a 1:20 mixture of Matrigel (BD Biosciences) in PBS. After treatment with the indicated compounds for 24 h, MDA-MB-231 human TNBC cells were harvested, resuspended in serum-free medium, and plated (2 × 10^5 cells/chamber) in the upper chambers of the Matrigel-coated Transwell inserts. Medium containing 30% FBS was used as a chemoattractant in the lower chambers. After a 24 h incubation, the cells that had migrated to the outer surfaces of the lower chambers were fixed and stained using the Diff-Quik Staining Kit (Sysmex, Kobe, Japan) and imaged using a Vectra 3.0 Automated Quantitative Pathology Imaging System (Perkin Elmer, Waltham, MA, USA). Representative images from three separate experiments are shown, and the numbers of invaded cells were counted in 5 randomly selected microscopic fields (200× magnification).

## CC(C)(C)c1ccc(C/C(=N\O)C(=O)NCC[Se]Sc2ccccc2)cc1 [9l, (E)-3-(4-(tert-Butyl)phenyl)-2-(hydroxyimino)-N-(2-((phenylthio)selanyl)ethyl)propanamide]
[1]
  E-cadherin protein expression: upregulation
  N-cadherin protein expression: downregulation
  vimentin protein expression: downregulation
MDA-MB-231 TNBC cells; Homo sapiens, MDA-MB-231, 72 h, SRB assay
  IC50: 160 nM
MDA-MB-231 TNBC cells; ratio of IC50 values between MCF10A and MDA-MB-231 cells
  Therapeutic Index: 161.63
MDA-MB-231 cells
  cell invasion: significantly inhibited
